Data from paper PMC10648541, “Design, Synthesis, and Antiproliferative Activity of Selective Histone Deacetylases 6 Inhibitors Containing a Tetrahydropyridopyrimidine Scaffold” (Molecules, 2023).

Key:
[1] = test system: RPMI-8226; test: NCI-60 antiproliferative screening, RPMI-8226; assay type: cell-based; conditions: Homo sapiens, RPMI-8226 (Leukemia), read-out: Inhibition% values at 10 μM concentration
Text: (§1) Then, 8f was submitted to NCI for antiproliferative evaluation against 59 different tumor cell lines. The cancer types of the NCI-60 program include leukemia, non-small cell lung cancer (NSCLC), colon cancer, CNS cancer, melanoma, ovary cancer, renal cancer, prostate cancer, and breast cancer.

[2] = test system: SR; test: NCI-60 antiproliferative screening, SR; assay type: cell-based; conditions: Homo sapiens, SR (Leukemia), read-out: Inhibition% values at 10 μM concentration
Text: as §1

[3] = test system: HCC-2998; test: NCI-60 antiproliferative screening, HCC-2998; assay type: cell-based; conditions: Homo sapiens, HCC-2998 (Colon Cancer), read-out: Inhibition% values at 10 μM concentration
Text: as §1

[4] = test system: MALME-3M; test: NCI-60 antiproliferative screening, MALME-3M; assay type: cell-based; conditions: Homo sapiens, MALME-3M (Melanoma), read-out: Inhibition% values at 10 μM concentration
Text: as §1

[5] = test system: MDA-MB-468; test: NCI-60 antiproliferative screening, MDA-MB-468; assay type: cell-based; conditions: Homo sapiens, MDA-MB-468 (Breast Cancer), read-out: Inhibition% values at 10 μM concentration
Text: as §1

[6] = test system: HL60; test: Antiproliferative assay (Alamar blue, 72 h), HL60; assay type: cell-based; conditions: Homo sapiens, HL-60, HL60 cells, three independent experiments, SD < 10%, read-out: Antiproliferative effect IC50, HL60
[7] = test system: OVCAR-5; test: NCI-60 antiproliferative screening, OVCAR-5; assay type: cell-based; conditions: Homo sapiens, OVCAR-5 (Ovarian Cancer), read-out: Inhibition% values at 10 μM concentration
Text: as §1

[8] = test system: 786-0; test: NCI-60 antiproliferative screening, 786-0; assay type: cell-based; conditions: Homo sapiens, 786-0 (Renal Cancer), read-out: Inhibition% values at 10 μM concentration
Text: as §1

[9] = molecular target: T1, HDAC4 (Homo sapiens, UniProt P56524); test: In vitro HDAC enzyme assay (Reaction Biology Corporation), HDAC4; assay type: biochemical; conditions: Table 2 isozyme screen; duplicate, SD < 15%
T1 construct: purchased Reaction Biology Corporation

[10] = test system: SF-539; test: NCI-60 antiproliferative screening, SF-539; assay type: cell-based; conditions: Homo sapiens, SF-539 (CNS Cancer), read-out: Inhibition% values at 10 μM concentration
Text: as §1

[11] = test system: SK-MEL-28; test: NCI-60 antiproliferative screening, SK-MEL-28; assay type: cell-based; conditions: Homo sapiens, SK-MEL-28 (Melanoma), read-out: Inhibition% values at 10 μM concentration
Text: as §1

[12] = test system: SN12C; test: NCI-60 antiproliferative screening, SN12C; assay type: cell-based; conditions: Homo sapiens, SN12C (Renal Cancer), read-out: Inhibition% values at 10 μM concentration
Text: as §1

[13] = test system: A549/ATCC; test: NCI-60 antiproliferative screening, A549/ATCC; assay type: cell-based; conditions: Homo sapiens, A549/ATCC (Non-Small Cell Lung Cancer), read-out: Inhibition% values at 10 μM concentration
Text: as §1

[14] = test system: HOP-62; test: NCI-60 antiproliferative screening, HOP-62; assay type: cell-based; conditions: Homo sapiens, HOP-62 (Non-Small Cell Lung Cancer), read-out: Inhibition% values at 10 μM concentration
Text: as §1

[15] = test system: MDA-MB-231/ATCC; test: NCI-60 antiproliferative screening, MDA-MB-231/ATCC; assay type: cell-based; conditions: Homo sapiens, MDA-MB-231/ATCC (Breast Cancer), read-out: Inhibition% values at 10 μM concentration
Text: as §1

[16] = test system: HOP-92; test: NCI-60 antiproliferative screening, HOP-92; assay type: cell-based; conditions: Homo sapiens, HOP-92 (Non-Small Cell Lung Cancer), read-out: Inhibition% values at 10 μM concentration
Text: as §1

[17] = test system: HS 578T; test: NCI-60 antiproliferative screening, HS 578T; assay type: cell-based; conditions: Homo sapiens, HS 578T (Breast Cancer), read-out: Inhibition% values at 10 μM concentration
Text: as §1

[18] = test system: HCT-116; test: NCI-60 antiproliferative screening, HCT-116; assay type: cell-based; conditions: Homo sapiens, HCT-116 (Colon Cancer), read-out: Inhibition% values at 10 μM concentration
Text: as §1

[19] = test system: UACC-62; test: NCI-60 antiproliferative screening, UACC-62; assay type: cell-based; conditions: Homo sapiens, UACC-62 (Melanoma), read-out: Inhibition% values at 10 μM concentration
Text: as §1

[20] = test system: OVCAR-8; test: NCI-60 antiproliferative screening, OVCAR-8; assay type: cell-based; conditions: Homo sapiens, OVCAR-8 (Ovarian Cancer), read-out: Inhibition% values at 10 μM concentration
Text: as §1

[21] = test system: HCT116; test: Antiproliferative assay (Alamar blue, 72 h), HCT116; assay type: cell-based; conditions: Homo sapiens, HCT-116, HCT116 cells, three independent experiments, SD < 10%, read-out: Antiproliferative effect IC50, HCT116
[22] = test system: NCI-H23; test: NCI-60 antiproliferative screening, NCI-H23; assay type: cell-based; conditions: Homo sapiens, NCI-H23 (Non-Small Cell Lung Cancer), read-out: Inhibition% values at 10 μM concentration
Text: as §1

[23] = molecular target: T2, HDAC3 (Homo sapiens, UniProt O15379); test: In vitro HDAC enzyme assay (Reaction Biology Corporation), HDAC3; assay type: biochemical; conditions: Table 2 isozyme screen; duplicate, SD < 15%
T2 construct: purchased Reaction Biology Corporation
T2 sequence (O15379 whole entry): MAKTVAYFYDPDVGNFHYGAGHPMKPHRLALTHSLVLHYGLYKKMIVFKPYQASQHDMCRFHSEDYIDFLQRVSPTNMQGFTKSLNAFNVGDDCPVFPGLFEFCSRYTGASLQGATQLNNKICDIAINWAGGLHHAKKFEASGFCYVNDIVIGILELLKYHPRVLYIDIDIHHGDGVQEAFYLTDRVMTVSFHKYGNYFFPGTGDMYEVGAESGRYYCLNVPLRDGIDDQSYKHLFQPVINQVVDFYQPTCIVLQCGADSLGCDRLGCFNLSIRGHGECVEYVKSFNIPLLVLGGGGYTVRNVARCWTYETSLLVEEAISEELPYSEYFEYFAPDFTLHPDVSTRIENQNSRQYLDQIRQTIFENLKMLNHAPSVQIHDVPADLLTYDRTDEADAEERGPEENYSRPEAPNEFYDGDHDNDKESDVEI
T2 sequence (Q9Y618 395-489 partner limits assumed): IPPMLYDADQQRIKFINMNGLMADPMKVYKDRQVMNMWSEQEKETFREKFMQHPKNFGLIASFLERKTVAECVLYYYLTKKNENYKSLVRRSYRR

T1 sequence (P56524 whole entry): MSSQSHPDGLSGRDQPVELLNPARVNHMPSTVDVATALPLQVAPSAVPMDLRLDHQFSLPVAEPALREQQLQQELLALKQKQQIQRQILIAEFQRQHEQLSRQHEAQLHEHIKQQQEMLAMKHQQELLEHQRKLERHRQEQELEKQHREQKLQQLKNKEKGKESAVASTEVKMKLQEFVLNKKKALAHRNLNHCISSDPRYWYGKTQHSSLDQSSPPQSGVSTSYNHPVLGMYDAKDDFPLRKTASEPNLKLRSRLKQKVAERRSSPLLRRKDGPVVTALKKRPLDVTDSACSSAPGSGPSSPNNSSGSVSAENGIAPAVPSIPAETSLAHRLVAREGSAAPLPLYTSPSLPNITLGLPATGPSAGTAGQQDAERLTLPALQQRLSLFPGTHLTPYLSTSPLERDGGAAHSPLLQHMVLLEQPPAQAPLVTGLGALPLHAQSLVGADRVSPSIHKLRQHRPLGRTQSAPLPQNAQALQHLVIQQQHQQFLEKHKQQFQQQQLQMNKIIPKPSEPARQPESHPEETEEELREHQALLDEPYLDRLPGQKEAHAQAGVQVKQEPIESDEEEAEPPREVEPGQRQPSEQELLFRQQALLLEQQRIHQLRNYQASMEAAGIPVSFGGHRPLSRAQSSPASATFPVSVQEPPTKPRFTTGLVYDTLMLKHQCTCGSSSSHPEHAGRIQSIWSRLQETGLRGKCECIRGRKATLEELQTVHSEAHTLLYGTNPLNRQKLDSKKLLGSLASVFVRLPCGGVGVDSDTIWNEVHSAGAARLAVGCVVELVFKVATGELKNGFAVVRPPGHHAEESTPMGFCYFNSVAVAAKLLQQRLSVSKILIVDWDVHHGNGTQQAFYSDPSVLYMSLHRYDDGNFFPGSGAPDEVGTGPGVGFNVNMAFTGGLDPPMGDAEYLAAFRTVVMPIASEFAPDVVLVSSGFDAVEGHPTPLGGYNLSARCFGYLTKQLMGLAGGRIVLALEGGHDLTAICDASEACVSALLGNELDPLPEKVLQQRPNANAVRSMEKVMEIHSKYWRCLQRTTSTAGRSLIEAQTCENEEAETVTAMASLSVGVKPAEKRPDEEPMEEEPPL

IC50 [6]: 3.2 µM
HDAC4 IC50 [9]: poor activity
IC50 [9]: > 10 µM
IC50 [21]: 3.25 µM
IC50 [23]: 411 nM
SMILES: COc1cccc(-c2nc3c(c(-c4cccc(OC)c4)n2)CCN(C(=O)CCCCCCC(=O)NO)C3)c1 [Compound 8f, 8-(2,4-Bis(3-methoxyphenyl)-5,8-dihydropyrido [3,4-d]pyrimidin-7(6H)-yl)-N-hydroxy-8-oxooctanamide]
inhibition at 10 µM [1]: 88.7%
inhibition at 10 µM [2]: 84.3%
inhibition at 10 µM [3]: 100%
inhibition at 10 µM [4]: 100%
inhibition at 10 µM [5]: 100%
inhibition at 10 µM [7]: 100%
inhibition at 10 µM [8]: 89.1%
inhibition at 10 µM [10]: 99%
inhibition at 10 µM [11]: 100%
inhibition at 10 µM [12]: 100%
inhibition at 10 µM [13]: 87.7%
inhibition at 10 µM [14]: 99.1%
inhibition at 10 µM [15]: 100%
inhibition at 10 µM [16]: 100%
inhibition at 10 µM [17]: 97.8%
inhibition at 10 µM [18]: 96%
inhibition at 10 µM [19]: 100%
inhibition at 10 µM [20]: 93.6%
inhibition at 10 µM [22]: 100%
